{"source": "patent US20090209525A1", "about": "“ENABLING METHODS TO IDENTIFY ALLOSTERIC MODULATORS OF RECEPTOR ACTIVITY” (priority 2006, published 2009)", "key": {"rat M1 N110A receptor": {"target": "T1, rat M1 N110A receptor (Rattus norvegicus, UniProt P08482, N110A)", "T1 construct": "expressed in transfected cells; host or cells: NIH-3T3", "T1 sequence (P08482 1-460 N110A)": "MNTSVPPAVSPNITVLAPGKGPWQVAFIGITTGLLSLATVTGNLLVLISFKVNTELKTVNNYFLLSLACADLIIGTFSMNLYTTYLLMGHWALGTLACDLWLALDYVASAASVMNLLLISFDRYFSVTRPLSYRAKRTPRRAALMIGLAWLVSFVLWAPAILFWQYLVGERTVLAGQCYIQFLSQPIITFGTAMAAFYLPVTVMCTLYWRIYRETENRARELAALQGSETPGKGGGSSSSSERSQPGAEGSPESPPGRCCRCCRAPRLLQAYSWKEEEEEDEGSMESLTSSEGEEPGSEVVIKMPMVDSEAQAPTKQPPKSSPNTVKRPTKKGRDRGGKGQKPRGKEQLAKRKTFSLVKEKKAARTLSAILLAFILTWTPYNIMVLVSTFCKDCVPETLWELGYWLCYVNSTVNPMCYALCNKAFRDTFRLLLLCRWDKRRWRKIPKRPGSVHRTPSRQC", "assay": "R-SAT functional assay, N110A mutant", "format": "cell-based", "conditions": "for Eff (%) / Shift / pEC50: Table 3; for Eff (%): maximum response, normalized; for Shift: EC50 N110A divided by EC50 wild-type", "procedure": "(§1) Cells are co-transfected for 18 h with DMEM containing 0.08 micrograms/ml of an expression vector for the expression of the mutant receptor and 0.3 micrograms/ml pSI-Bgal (Promega, Madison Wis.), and 0.5% v/v Polyfect (Qiagen, Valencia Calif.), as recommended by the manufacturer. On day three, the medium is replaced with DMEM containing 1% PSG, 0.5% calf serum, 2% cyto-sf3 (Kemp Biotechnologies, Frederick, Md.), and varying concentrations of the compounds to be tested. Cells are grown in a humidified atmosphere with 5% ambient CO2 for 5 days. The media is removed from the plates, and beta-galactosidase activity is measured by the addition of o-nitrophenyl -d-galactopyranoside in phosphate-buffered saline with 5% Nonidet P-40. […] The following equation is fitted to the data using GraphPad Prism software (San Diego, Calif.):\n(§2) NIH-3T3 cells were grown in 96-well tissue culture plates to 70 to 80% confluence in Dulbecco's modified essential media (DMEM) supplemented with 100 units/ml penicillin, 100 micrograms/ml streptomycin, 0.3 mg/ml L-glutamine (1% PSG, GIBCO) and 10% calf serum (Sigma-Aldrich). Cells were transfected for 18 h with DMEM containing 0.08 micrograms/ml receptor DNA and 0.3 micrograms/ml pSI-Bgal (Promega, Madison Wis.), 0.5% v/v Polyfect (Qiagen, Valencia Calif.). Medium was replaced with DMEM containing 1% PSG, 0.5% calf serum, 2% cyto-sf3 (Kemp Biotechnologies, Frederick, Md.), and varying concentrations of ligand. […] Cells were grown in a humidified atmosphere with 5% ambient CO2 for 5 days. Medium was removed from the plates, and beta-galactosidase activity was measured by the addition of o-nitrophenyl -d-galactopyranoside in phosphate-buffered saline with 5% Nonidet P-40."}, "rat M1 Y381A receptor": {"target": "T2, rat M1 Y381A receptor (Rattus norvegicus, UniProt P08482, Y381A)", "T2 construct": "expressed in transfected cells; host or cells: NIH-3T3", "T2 sequence (P08482 1-460 Y381A)": "T1 sequence (P08482 1-460 N110A) with A110N, Y381A", "assay": "R-SAT functional assay, Y381A mutant", "format": "cell-based", "conditions": "M1 Y381A; for EC50: read-out: pEC50 (converted)", "procedure": "as §1, §2\nReceptor Selection and Amplification (R-SAT™) Assays: R-SAT™ functional assays were carried out as follows. NIH-3T3 cells were grown in 96-well tissue culture plates to 70 to 80% confluence in Dulbecco's modified essential media (DMEM) supplemented with 100 units/ml penicillin, 100 micrograms/ml streptomycin, 0.3 mg/ml L-glutamine (1% PSG, GIBCO) and 10% calf serum (Sigma-Aldrich). Cells were transfected for 18 h with DMEM containing 0.08 micrograms/ml receptor DNA and 0.3 micrograms/ml pSI-Bgal (Promega, Madison Wis.), 0.5% v/v Polyfect (Qiagen, Valencia Calif.). The transfected cells were frozen away. Cells were thawed and added to 96 well plates with DMEM containing 1% PSG, 0.5% calf serum, 2% cyto-sf3 (Kemp Biotechnologies, Frederick, Md.), and varying concentrations of ligand.\nIn an effort to further characterize monoamine modulators, we used a panel of mutant muscarininc M1 receptors to analyze the activity and potency of orthosteric modulators and various allosteric modulators at those receptors."}, "[1]": {"target": "T3, CHO cell membranes expressing the muscarinic M1 receptor (Homo sapiens, UniProt P11229)", "T3 construct": "expressed in transfected cells; host or cells: CHO", "T3 sequence (P11229 1-460)": "T1 sequence (P08482 1-460 N110A) with V5A, A110N, S254T, S309P, K320R, G337A, V413I", "assay": "Equilibrium ^3H-NMS binding at 2 nM and 10 nM ^3H-NMS"}, "[2]": {"conditions": "Table 4, maximum response relative to xanomeline"}, "[3]": {"conditions": "Table 10, maximum response relative to AC-42"}, "[4]": {"conditions": "^3H-NMS 2 nM and 10 nM, result in words"}}, "note": "Positions count from the first letter of the chain named. pEC50: −log10 of the molar value. Read-outs that look alike come from different tables or passages of the source.", "data": [{"smiles": "CCCCC1CCN(CCCC(=O)c2ccccc2C)CC1", "note": "[AC-42, 4-n-butyl-1-[4-(2-methylphenyl)-4-oxo-1-butyl] piperidine hydrogen chloride]", "values": [{"measurement": "Eff (%)", "setting": "rat M1 N110A receptor; N110A", "result": "7 ± 1", "unit": "%"}, {"measurement": "% Eff", "setting": "rat M1 Y381A receptor; [2]", "result": 46, "unit": "%"}, {"measurement": "EC50", "setting": "rat M1 Y381A receptor; Table 4", "result": 0.316, "unit": "µM"}, {"measurement": "EC50", "setting": "rat M1 Y381A receptor; Table 10, NA = non-active", "result": 3.16, "unit": "µM"}, {"measurement": "% Eff", "setting": "rat M1 Y381A receptor; [3]", "result": 102, "unit": "%"}, {"measurement": "displacement of ^3H-NMS", "setting": "[1]", "result": "complete displacement of ^3H-NMS was not observed"}]}, {"smiles": "CCCCC1CCN(CCCN2C(=O)COc3cc(F)ccc32)CC1", "note": "[AC-260584, 4-[3-(4-Butyl-piperidin-1-yl)-propyl]-7-fluoro-4H-benzo [1,4]oxazin-3-one]", "values": [{"measurement": "decrease in potency relative to wild-type", "setting": "rat M1 N110A receptor; R-SAT, N110A", "result": 30, "unit": "fold"}, {"measurement": "Shift", "setting": "rat M1 N110A receptor", "result": 43}, {"measurement": "pEC50", "setting": "rat M1 N110A receptor; N110A", "result": 6.20}, {"measurement": "Eff (%)", "setting": "rat M1 N110A receptor; N110A", "result": "38 ± 6", "unit": "%"}, {"measurement": "% Eff", "setting": "rat M1 Y381A receptor; [2]", "result": 60, "unit": "%"}, {"measurement": "EC50", "setting": "rat M1 Y381A receptor; Table 4", "result": 0.0794, "unit": "µM"}, {"measurement": "EC50", "setting": "rat M1 Y381A receptor; Table 10, NA = non-active", "result": 0.0631, "unit": "µM"}, {"measurement": "% Eff", "setting": "rat M1 Y381A receptor; [3]", "result": 168, "unit": "%"}, {"measurement": "displacement of ^3H-NMS", "setting": "[1]; [4]", "result": "completely displace"}]}, {"smiles": "Clc1ccc2c(c1)N=C(N1CCNCC1)c1ccccc1N2", "note": "[NDMC, 8-chloro-11-(1-piperazinyl)-5H-dibenzo [b,e] [1,4] diazepine]", "values": [{"measurement": "Shift", "setting": "rat M1 N110A receptor", "result": 21}, {"measurement": "pEC50", "setting": "rat M1 N110A receptor; N110A", "result": 6.10}, {"measurement": "Eff (%)", "setting": "rat M1 N110A receptor; N110A", "result": "66 ± 16", "unit": "%"}, {"measurement": "% Eff", "setting": "rat M1 Y381A receptor; [2]", "result": 95, "unit": "%"}, {"measurement": "EC50", "setting": "rat M1 Y381A receptor; Table 4", "result": 0.158, "unit": "µM"}, {"measurement": "EC50", "setting": "rat M1 Y381A receptor; Table 10, NA = non-active", "result": 0.158, "unit": "µM"}, {"measurement": "% Eff", "setting": "rat M1 Y381A receptor; [3]", "result": 330, "unit": "%"}, {"measurement": "displacement of ^3H-NMS", "setting": "[1]; [4]", "result": "completely displace"}]}]}
